# In patent US20240216413A1, “THIONUCLEOSIDES AS ANTIVIRAL AGENTS” (priority 2021, published 2024):
# Where two headings read alike, the source gives them in different places.
# Legend:
# Type in all cases: cell-based
# SARS-CoV-2 variant Alpha [1] = test: microbe, parasite or virus in culture; details: for EC50: read-out: Antiviral Activity Against SARS-CoV-2 Variants in Vero EC50, Alpha; for EC90: read-out: Antiviral Activity Against SARS-CoV-2 Variants in Vero EC90, Alpha
# SARS-CoV-2 variant Beta [2] = test: microbe, parasite or virus in culture; details: for EC50: read-out: Antiviral Activity Against SARS-CoV-2 Variants in Vero EC50, Beta; for EC90: read-out: Antiviral Activity Against SARS-CoV-2 Variants in Vero EC90, Beta
# SARS-CoV-2 variant Gamma [3] = test: microbe, parasite or virus in culture; details: for EC50: read-out: Antiviral Activity Against SARS-CoV-2 Variants in Vero EC50, Gamma; for EC90: read-out: Antiviral Activity Against SARS-CoV-2 Variants in Vero EC90, Gamma
# [4] = test system: SARS-CoV-2 Lineage A (Eng); test: Antiviral activity against SARS-CoV-2 Lineage A (Eng) in Vero; details: for EC50: read-out: Antiviral Activity Against SARS-CoV-2 Variants in Vero EC50, Lineage A (Eng); for EC90: read-out: Antiviral Activity Against SARS-CoV-2 Variants in Vero EC90, Lineage A (Eng)
# [5] = test system: SARS-CoV-2 Lineage A (Wa); test: Antiviral activity against SARS-CoV-2 Lineage A (Wa) in Vero; details: read-out: Antiviral Activity Against SARS-CoV-2 Variants in Vero EC50, Lineage A (Wa)
# SARS-CoV-2 variant Alpha [6] = test: microbe, parasite or virus in culture
# SARS-CoV-2 variant Gamma [7] = test: microbe, parasite or virus in culture
# SARS-CoV-2 variant Delta = test: microbe, parasite or virus in culture
# [8] = test system: SARS-CoV-2 Lineage A (Eng); test: Antiviral activity against SARS-CoV-2 Lineage A (Eng) in Calu3
# [9] = test system: SARS-CoV-2 Lineage A (Wa); test: Antiviral activity against SARS-CoV-2 Lineage A (Wa) in Calu3
# SARS-CoV-2 variant Beta [10] = test: microbe, parasite or virus in culture; details: Severe acute respiratory syndrome coronavirus 2, Calu-3, read-out: Antiviral Activity Against SARS-CoV-2 Variants in Calu3 EC50, Beta
# [11] = Severe acute respiratory syndrome coronavirus 2, Alpha, Vero
# [12] = Severe acute respiratory syndrome coronavirus 2, Beta, Vero
# [13] = Severe acute respiratory syndrome coronavirus 2, Gamma, Vero
# [14] = Severe acute respiratory syndrome coronavirus 2, Lineage A (Eng), Vero
# [15] = Severe acute respiratory syndrome coronavirus 2, Vero
smiles,measurement,setting,value
"CCC(CC)COC(=O)[C@H](C)N[P@](=O)(OC[C@H]1O[C@@](C#N)(c2ccc3c(N)ncnn23)[C@H](O)[C@@H]1O)Oc1ccccc1 [Remdesivir, reference compound]",EC50,SARS-CoV-2 variant Alpha [1]; [11],400 nM
same,EC90,SARS-CoV-2 variant Alpha [1]; [11],1600 nM
same,EC50,SARS-CoV-2 variant Beta [2]; [12],1100 nM
same,EC90,SARS-CoV-2 variant Beta [2]; [12],2200 nM
same,EC50,SARS-CoV-2 variant Gamma [3]; [13],300 nM
same,EC90,SARS-CoV-2 variant Gamma [3]; [13],2100 nM
same,EC50,[4]; [14],300 nM
same,EC90,[4]; [14],2900 nM
same,EC50,"[5]; Severe acute respiratory syndrome coronavirus 2, Lineage A (Wa), Vero",200 nM
same,EC50,"SARS-CoV-2 variant Alpha [6]; Severe acute respiratory syndrome coronavirus 2, Calu-3, Alpha, Calu3, read-out: Antiviral Activity Against SARS-CoV-2 Variants in Calu3 EC50, Alpha",300 nM
same,EC90,"SARS-CoV-2 variant Alpha [6]; Severe acute respiratory syndrome coronavirus 2, Calu-3, Alpha, Calu3, read-out: Antiviral Activity Against SARS-CoV-2 Variants in Calu3 EC90, Alpha",400 nM
same,EC50,"SARS-CoV-2 variant Gamma [7]; Severe acute respiratory syndrome coronavirus 2, Calu-3, Gamma, Calu3, read-out: Antiviral Activity Against SARS-CoV-2 Variants in Calu3 EC50, Gamma",260 nM
same,EC90,"SARS-CoV-2 variant Gamma [7]; Severe acute respiratory syndrome coronavirus 2, Calu-3, Gamma, Calu3, read-out: Antiviral Activity Against SARS-CoV-2 Variants in Calu3 EC90, Gamma",300 nM
same,EC50,"SARS-CoV-2 variant Delta; Severe acute respiratory syndrome coronavirus 2, Calu-3, Delta, Calu3, read-out: Antiviral Activity Against SARS-CoV-2 Variants in Calu3 EC50, Delta",300 nM
same,EC90,"SARS-CoV-2 variant Delta; Severe acute respiratory syndrome coronavirus 2, Calu-3, Delta, Calu3, read-out: Antiviral Activity Against SARS-CoV-2 Variants in Calu3 EC90, Delta",2300 nM
same,EC50,"[8]; Severe acute respiratory syndrome coronavirus 2, Calu-3, Lineage A (Eng), Calu3, read-out: Antiviral Activity Against SARS-CoV-2 Variants in Calu3 EC50, Lineage A (Eng)",20 nM
same,EC90,"[8]; Severe acute respiratory syndrome coronavirus 2, Calu-3, Lineage A (Eng), Calu3, read-out: Antiviral Activity Against SARS-CoV-2 Variants in Calu3 EC90, Lineage A (Eng)",300 nM
same,EC50,"[9]; Severe acute respiratory syndrome coronavirus 2, Calu-3, Lineage A (Wa), Calu3, read-out: Antiviral Activity Against SARS-CoV-2 Variants in Calu3 EC50, Lineage A (Wa)",100 nM
same,EC90,"[9]; Severe acute respiratory syndrome coronavirus 2, Calu-3, Lineage A (Wa), Calu3, read-out: Antiviral Activity Against SARS-CoV-2 Variants in Calu3 EC90, Lineage A (Wa)",400 nM
"O=c1ccn([C@@H]2S[C@H](CO)[C@@H](O)[C@H]2O)c(=O)[nH]1 [Compound 8, 1-((2R,3R,4S,5R)-3,4-dihydroxy-5-(hydroxymethyl)tetrahydrothiophen-2-yl)pyrimidine-2,4(1H,3H)-dione]",EC50,SARS-CoV-2 variant Alpha [1]; [15],300 nM
same,EC90,SARS-CoV-2 variant Alpha [1]; [15],1400 nM
same,EC50,SARS-CoV-2 variant Beta [2]; [15],800 nM
same,EC90,SARS-CoV-2 variant Beta [2]; [15],1000 nM
same,EC50,SARS-CoV-2 variant Gamma [3]; [15],200 nM
same,EC90,SARS-CoV-2 variant Gamma [3]; [15],300 nM
same,EC50,[4]; [15],200 nM
same,EC90,[4]; [15],400 nM
same,EC50,[5]; [15],800 nM
same,EC50,"SARS-CoV-2 variant Alpha [6]; Severe acute respiratory syndrome coronavirus 2, Calu-3, read-out: Antiviral Activity Against SARS-CoV-2 Variants in Calu3 EC50, Alpha",300 nM
same,EC50,SARS-CoV-2 variant Beta [10],1100 nM
same,EC50,"SARS-CoV-2 variant Gamma [7]; Severe acute respiratory syndrome coronavirus 2, Calu-3, read-out: Antiviral Activity Against SARS-CoV-2 Variants in Calu3 EC50, Gamma",40 nM
same,EC90,"SARS-CoV-2 variant Gamma [7]; Severe acute respiratory syndrome coronavirus 2, Calu-3, read-out: Antiviral Activity Against SARS-CoV-2 Variants in Calu3 EC90, Gamma",100 nM
same,EC50,"SARS-CoV-2 variant Delta; Severe acute respiratory syndrome coronavirus 2, Calu-3, read-out: Antiviral Activity Against SARS-CoV-2 Variants in Calu3 EC50, Delta",1800 nM
same,EC90,"SARS-CoV-2 variant Delta; Severe acute respiratory syndrome coronavirus 2, Calu-3, read-out: Antiviral Activity Against SARS-CoV-2 Variants in Calu3 EC90, Delta",3600 nM
same,EC90,"[8]; Severe acute respiratory syndrome coronavirus 2, Calu-3, read-out: Antiviral Activity Against SARS-CoV-2 Variants in Calu3 EC90, Lineage A (Eng)",4500 nM
same,EC50,"[9]; Severe acute respiratory syndrome coronavirus 2, Calu-3, read-out: Antiviral Activity Against SARS-CoV-2 Variants in Calu3 EC50, Lineage A (Wa)",100 nM
same,EC90,"[9]; Severe acute respiratory syndrome coronavirus 2, Calu-3, read-out: Antiviral Activity Against SARS-CoV-2 Variants in Calu3 EC90, Lineage A (Wa)",400 nM
